# Reference: patent US11554124B2, “Hematopoiesis-enhancing agent” (priority 2018, dated 2023)
# Columns and labels:
# Format in all cases: in vivo, mouse
# [1] = system: bone marrow erythroblasts; test: Flow cytometry of bone marrow cells / erythroblast subsets (Ter119/CD71 double staining) of treated mice; settings: CLEU 50 mg/body i.p.
# Procedure: Wild-type mice with a genetic background of C57BL/6J were purchased from Charles River Laboratories, Inc. Mice at 8 to 14 weeks of age were used for analysis. For CLEU treatment (50 mg/body), a solution of cycloleucine (CLEU) was prepared by diluting cycloleucine (CLEU) (Sigma) in PBS (50 mg/ml), and 1 ml of the CLEU solution was administered intraperitoneally. For AKBA treatment (2 mg/body), 2 mg AKBA (Enzo Life Sciences)/20% DMSO/1 mL PBS solution was administered intraperitoneally. Vehicle without AKBA was used as a control. For measuring complete blood count of peripheral blood, peripheral blood was collected from facial veins and counted by use of an automated animal blood cell counter (microsemi LC-662). All of the experiments conducted in this study were approved by the Animal Experiment Committee of the Environmental Safety Committee of Tohoku University.
# BM cells and spleen cells were harvested in a conventional manner. Cells were stained with combinations of antibodies specific to erythroblasts and mature cells, to thereby identify them. The cells were visualized with antibody and streptavidin-peridinin chlorophyll protein-cyanin 5.5. The antibodies used in this study were as follows: anti-CD3e (145-2C11), anti-CD4 (GK1.5 or RM4.5), anti-CD8a (53-6.7), anti-Gr-1 (RB6-8C5), anti-B220 (RA3-6B2), anti-Ter-119 (TER-119), anti-CD71 (R17217 or C2). Cells were stained with […] (Sigma), and dead cells were excluded from analysis. Flow cytometric analysis and cell sorting were performed according to the manufacturer's protocol using FACS AriaII (BD), and then the obtained data were analyzed using FlowJo software (TreeStar).
# Additionally, MAT inhibitor PF9366 (PF) was administered to mice and the effect thereof was investigated. Vehicle (DMSO) (control (Ctrl)) or 10 mM PF9366 (prepared at a concentration of 40 μl/40 ml water) was provided in a drinking bottle (0 h). In addition, 80 μl of vehicle (DMSO) or 80 μl of 10 mM PF9366 dissolved in 1 ml PBS was also administered intraperitoneally at 0 h and 24 h. Analysis was carried out at Day 2 (48 h).
# MAT inhibitor 3-acetyl-11-keto-β-boswellic acid (AKBA; 2 mg/body) was intraperitoneally administered to mice at 0 and 24 hours, and analyzed after 48 hours.
# [2] = system: BM erythroblast subset II; test: RNA sequencing / RT-PCR of BM erythroblast subset II of treated mice
# Procedure: Total RNA was isolated by using the RNeasy kit (Qiagen) from the sorted sample of bone marrow subset II erythroblasts (PBS; n=4, CLEU; n=4). The quality of the isolated RNA ([…]) was checked using a 2100 bioanalyzer (Agilent), and 250 ng of the RNA was used as input for library preparation in accordance with the manufacturer's instructions using the TruSeq Stranded mRNA Library Prep Kit (Illumina). High-throughput sequencing (51 bp, single-ended) was performed using Hiseq2500 Rapid mode v2 (Illumina). Sequenced reads were mapped to the reference mouse genome (mm9) by using bowtie2 version 2.2.5 and tophat version 2.1.0, and then the abundances of transcripts were estimated by using cufflinks version 2.2.1. Gene expression levels were normalized to the average of fragments per kilobase of transcript per million mapped reads (FPKM) value. Individually expressed genes with FPKM>10 and CV<0.5 (under at least one of the two conditions) were used for further analysis (log2 FC<−0.5 or log2 FC>0.5, P<0.05 within each condition).
# For the purpose of elucidating the mechanism of the maturation of erythroblasts induced by CLEU treatment, RNA sequencing analysis of BM erythroblast subset II was performed. […] According to previous reports which had shown the contributory role of CD163 and Apoe in erythropoiesis, up-regulation of CD163 and/or Apoe is necessary for proper use of heme and/or lipid membrane synthesis during the maturation of erythroblasts. […] Considering the fact that abnormalities in globin genes cause the maturation defects in erythroblasts in disorders such as thalassemia, up-regulation of these genes, on the other hand, could be the driving force for the final maturation stage of erythroblasts.
# [3] = system: trimethylation of lysine 9 of histone H3 (H3K9me3); test: Western blot of H3K9me3 in bone marrow erythroblast subset II; settings: CLEU, BM erythroblast subset II, Day 2, vs PBS
# Source text: FIG. 4 is the experimental result showing that epigenetic demethylation induces the final maturation of erythroblasts. Panel A: WGBS (whole genome bisulfite sequencing) results of bone marrow erythroblast subset II harvested from CLEU or PBS treated mouse (Day 2) (CLEU; n=2, PBS; n=2). Panel B: Difference in expression levels versus difference in CpG methylation of the promoter for all expressed genes (at least one of FPKM>10 and CV<0.5). The correlation (Cor) was −0.08. […] The correlation (Cor) was −0.11. Panel D: Images (photographs) showing western blot (WB) results of trimethylation of lysine 9 of histone H3 (H3K9me3) on bone marrow erythroblast subset II harvested from CLEU or PBS treated mouse (Day 2). Panels E-G: In vitro red blood cell differentiation of Human CD34^+ cord blood cells. Panel E: Representative results of flow cytometric analysis. Panel F: Cumulative results for the indicated cell population. Panel G: Cumulative results for CD34 EMI (CD34 red blood cell maturation index: CD71^+ GlyA^+/CD71^+ GlyA^−). Each point shown in the box plots represents each technical replicate. Asterisk indicates P<0.001.
# The overall transcriptional changes observed as above could be attributed to epigenetic modification changes due to the reduced abundance of intracellular SAM (Panel A of FIG. 2). […]
# [4] = CLEU, subset II, Day 2, RT-PCR normalized to Actb
smiles,measurement,setting,value
"NC1(C(=O)O)CCCC1 [CLEU, cycloleucine]",subset from which the increase of erythroblasts was initiated,"[1]; Day 2, Ter119/CD71 double staining",initiated from subset II
same,maturation of erythroblasts,"[1]; Day 2, Ter119/CD71 double staining, vs PBS",significantly up-regulated
same,erythroid cells in BM,"[1]; Day 2, flow cytometry, vs PBS",considerable increase
same,BM cell counts,"[1]; femur and tibiae, Day 2, vs PBS",significantly increased
same,number of genes identified as significantly up-regulated,"[2]; CLEU, BM erythroblast subset II, Day 2, RNA sequencing, vs PBS",72 genes
same,"expression of Gata1, Tal1, and Klf1","[2]; CLEU, BM erythroblast subset II, Day 2, vs PBS",significantly down-regulated
same,"expression of Myb, Cited2 and H1f0",[2]; [4],significantly up-regulated
same,"expression of hemoglobin-related genes, CD163 and Apoe (validation analysis)",[2]; [4],significantly up-regulated
same,expression levels of several histone methyltransferase,"[2]; CLEU, subset II, RNA sequencing",significantly down-regulated
same,expression of globin genes,"[2]; CLEU-treated erythroblasts, subset II, Day 2",most heavily expressed
same,trimethylation of H3K9,[3],decreased
